Source: paper PMC11098465, “A comparative analysis of peptide-delivered antisense antibiotics using diverse nucleotide mimics” (RNA, 2024)

How the values were obtained:
AcpP::3xFLAG = assay: Western blot of AcpP::3xFLAG protein levels after ASO treatment; format: cell-based, Salmonella enterica serovar Typhimurium SL1344 AcpP::3xFLAG; design: key to AcpP protein reduction: +++: Effect strength is represented by additional (+) signs.; ++: Effect strength is represented by additional (+) signs.; Effect strength is represented by additional (+) signs; conditions: for AcpP protein levels after treatment (in words): KFF-ASO 5 µM, 30, 60, 120 min; for AcpP protein reduction: KFF-ASO constructs at 5 µM, 120 min, summary grade
Description: We have previously shown that PNAs targeting acpP lead to rapid depletion of the target transcript ([Hör et al. 2022]; [Popella et al. 2022]; [Jung et al. 2023]), although this is not a universal phenomenon and varies from transcript to transcript ([Popella et al. 2022]). In other words, an ASO might block target protein synthesis without substantially impacting mRNA levels. Therefore, we wanted to test if the different ASO modalities affect AcpP protein levels in cellulo despite their inability to deplete the acpP transcript. We took advantage of Salmonella expressing a FLAG-tagged AcpP (AcpP::3xFLAG) protein from its native locus. First, we exposed the bacterial cells to PMO and PNA for 30, 60, or 120 min (Fig. 9A) to determine the best time point for our analysis.
Salmonella WT and SL1344 AcpP::3xFLAG were grown overnight in noncation adjusted MHB. Bacterial cultures were diluted 1:100, grown to OD600 0.5, and subsequently diluted to ∼10^6 cfu/mL in MHB. Then, 1.9 mL of each diluted bacterial solution was transferred into 5 mL low-binding tubes, preincubated at 37°C for 10 min, and treated with 100 µL of ASOs to adjust a final concentration of 5 µM. Water was added as negative control. The treatment with PNA and PMO was performed with aeration at 37°C and 220 rpm shaking for 30, 60, and 120 while for all other ASOs, they were treated for 120 min only. Subsequently, the cells were collected by centrifugation at 4°C and 16,000g for 5 min, resuspended in 1× Protein Loading Buffer (62.6 mM Tris–HCl pH 6.8, 2% SDS, 0.1 mg/mL bromophenol blue, 15.4 mg/mL DTT, 10% glycerol) and denatured at 95°C for 10 min.
For detection of AcpP::3xFLAG protein levels, samples were separated on a 12% SDS-PAA gel and transferred onto a nitrocellulose membrane via semi-dry western blotting. The membrane was probed with an α-FLAG antibody (Sigma; 1:1000 in 1× TBS-T containing 3% BSA) at 4°C overnight. After washing in 1× TBS-T, the membrane was incubated with a secondary HRP-conjugated antimouse antibody (Thermo Scientific; 1:5000 in 1× TBS-T containing 1% BSA) at RT for 1 h. Excessive antibody was removed by repeated wash-steps in 1× TBS-T, and the membrane was developed by an Amersham ECL Select Western Blotting Detection Reagent Kit (Cytiva).

acpP mRNA = assay: RNA-seq of KFF-ASO-treated Salmonella (acpP mRNA depletion); format: cell-based, Salmonella enterica serovar Typhimurium strain SL1344; design: key to acpP depletion (RNA-seq): +++: Effect strength is represented by additional (+) signs.; ++: Effect strength is represented by additional (+) signs.; Effect strength is represented by additional (+) signs; conditions: 15 min; for acpP depletion (RNA-seq): ASO conjugated to the carrier peptide, 5 µM, summary grade
Protocol: To assay bacterial responses to the different ASO modalities and to determine target mRNA depletion in cellulo, we performed RNA-seq analysis of Salmonella challenged with 5 µM KFF-ASO conjugates for 15 min. We first evaluated two individual RNA-seq experiments by principal component analysis (PCA) and observed three distinct clusters (Fig. 5). The PCA cluster 1 grouped the water control, RNA-MOE, RNA-OMe, and the PNA-treated conditions. […] Cluster 2 grouped the other negASOs. As we have previously observed for KFF peptide exposure ([Popella et al. 2021], [2022]), these treatments led to the activation of a cationic antimicrobial peptide (CAMP) response, including induction of the PhoP/Q and PmrA/B regulons involved in remodeling LPS, and the CpxR regulon that responds to envelope stress (Fig. 7). […] These treatments also led to the down-regulation of genes responsible for the destruction of superoxide anion radicals (sodB) and those involved in manganese efflux (yebN) (Figs. 6 and 7). Finally, cluster 3 grouped samples of the unconjugated peptides and the PMO treatment. Similarly to cluster 2, these activated a strong CAMP response (Fig. 7).
RNA isolation was performed using previously published protocols ([Popella et al. 2021], [2022]). Bacterial overnight cultures were diluted 1:100 in fresh MHB and grown to OD600 0.5. The cultures were diluted to ∼10^6 cfu/mL in noncation-adjusted MHB. […]
Total RNA was purified from bacterial pellets using the miRNeasy Mini kit (Qiagen) according to protocol #3 described in [Popella et al. (2021]). […] RNA concentration was measured with a NanoDrop spectrophotometer.
For transcriptomic analyses, RNA samples were processed and subjected to RNA-seq at the Core Unit SysMed (University of Würzburg). […] Sequencing of pooled libraries, spiked with 5% PhiX control library, was performed at 10 million reads/sample in single-end mode with 75 nt read length on the NextSeq 500 platform (Illumina) using High output sequencing kits. […]

| Substance | AcpP protein levels after treatment (in words) (AcpP::3xFLAG) | AcpP protein reduction (AcpP::3xFLAG) | acpP depletion (RNA-seq) (acpP mRNA) | acpP mRNA levels after treatment (in words) (acpP mRNA; 5 µM KFF-ASO conjugates, RNA-seq) |
| --- | --- | --- | --- | --- |
| PMO: phosphorodiamidate morpholino 10mer ASO, sequence CTCATACTCT, targeting acpP −5 to +5 (all phosphorodiamidate morpholino (PMO)) | gradual depletion of AcpP, albeit less pronounced than PNA | + | + | – |
| PNA: peptide nucleic acid 10mer ASO, sequence CTCATACTCT, targeting acpP −5 to +5 (all peptide nucleic acid (PNA)) | depletion in AcpP levels can be observed from 60 min post-treatment onward | ++ | ++ | reduces the levels of acpP mRNA |
